Source: patent US20110070232A1, “Combination Therapy with an Antitumor Alkaloid” (Pharma Mar, S.A., priority 2008, published 2011)
Like-named read-outs stand apart in the source and are kept apart here.

What was measured:
Assay type in all cases: in vivo, mice
HepG2 tumors = test system: HepG2 tumors
Experimental: (§1) Female athymic nude mice (Harlan Sprague Dawley, Madison, Wis.) were utilized for all experiments. Animals were housed in ventilated rack caging with food and water ad libitum. The mice were acclimated for at least 5 days prior to tumor implantation with a tumor cell suspension.
The tumor model used in these studies was HepG2 cell line, which was obtained from the ATCC (Manassas, Va.).
HepG2 cells were grown in MEM supplemented with 10% FBS, 1.5 g/L sodium bicarbonate, 0.1 mM non-essential amino acids, 1.0 mM sodium pyruvate, and 2 mM L-glutamine. Each animal was implanted SC on the right flank, using a 13G trochar, with 5×10^6 HepG2 cells in a 0.2 mL suspension of 50% Matrigel and 50% serum free medium, without antibiotics. Bacterial cultures were performed on aliquots of the cells prepared for implantation.
Treatments were initiated on DPI 19.
(§2) Tumor size measurements were recorded twice weekly from the treatment initiation until the termination of the study.
(§3) Mean, standard deviation and standard error of the mean were determined for tumor volume for all animal groups at all assessments. Student's t test was performed on tumor volumes at each measurement day, including at the end of the study, to determine whether there were any statistically significant differences between combination treatment groups and single monotherapy treatment groups.

PLC/PRF/5 tumors = test system: PLC/PRF/5 tumors
Experimental: as §1
The tumor model used in these studies was PLC/PRF/5 cell line, which was obtained from the ATCC (Manassas, Va.).
PLC/PRF/5 were grown in Eagle's minimum essential medium supplemented with 10% FBS and 1% L-glutamine. Each animal was implanted SC on the right flank, using a 13G trochar and 1 mL syringe, with 5×10^6 PLC/PRF/5 cells in a 0.2 mL suspension of 50% Matrigel and 50% serum free MEM medium, without antibiotics. Bacterial cultures were performed on aliquots of the cells prepared for implantation.
Treatments were initiated on DPI 14.
as §2, §3

MRI-H-254 tumors = test system: MRI-H-254 tumors
Experimental: Female athymic nude mice (Harlan Sprague Dawley, Madison, Wis.) were utilized for all experiments. Animals were housed in ventilated rack caging with food and water ad libitum. The mice were acclimated for at least 5 days prior to tumor implantation with tumor fragments.
Treatments were initiated on DPI 16.
as §2, §3

NCI-H460 tumors = conditions: alone or with PM00104 0.9 mg/kg/day IV
Experimental: Female athymic nude mice (Harlan Sprague Dawley, Madison, Wis.) were utilized for all experiments. Animals were housed in ventilated rack caging with food and water ad libitum. The mice were acclimated for at least 5 days prior to tumor implantation.
The tumor model used in this study was NCI-H460 cell line which is a human NSCLC cell line obtained from the ATCC (Manassas, Va.). […] Cells from in vitro passage 7 were implanted SC into study mice using a 1 ml syringe with a 13G trocar: 5×10^6 cells/mouse in 0.2 ml 50% Matrigel/50% RPMI medium of NCI-H460 without serum or antibiotics. Bacterial culture was taken on cells used to implant the study.
Treatments were initiated on DPI 9.
Tumor size measurements were recorded 2-3 times/week from the treatment initiation until the termination of the study.
as §3

[1] = day 19, PM00104 0.90, sorafenib 30 mg/kg/day
[2] = day 22, PM00104 0.90, sorafenib 30 mg/kg/day
[3] = day 22, PM00104 0.90, sorafenib 60 mg/kg/day
[4] = day 26, PM00104 0.90, sorafenib 60 mg/kg/day
[5] = day 30, PM00104 0.90, sorafenib 30 mg/kg/day
[6] = day 30, PM00104 0.90, sorafenib 60 mg/kg/day
[7] = day 33, PM00104 0.90, sorafenib 60 mg/kg/day
[8] = day 14, PM00104 0.90, sorafenib 60 mg/kg/day
[9] = day 25, PM00104 0.90, sorafenib 60 mg/kg/day
[10] = day 28, PM00104 0.90, sorafenib 60 mg/kg/day
[11] = day 32, PM00104 0.90, sorafenib 60 mg/kg/day
[12] = day 39, PM00104 0.90, sorafenib 60 mg/kg/day
[13] = day 42, PM00104 0.90, sorafenib 60 mg/kg/day
[14] = day 20, PM00104 0.90, cisplatin 3, irinotecan 10, paclitaxel 12.5 mg/kg/day
[15] = day 20, PM00104 0.90, cisplatin 5, irinotecan 18, paclitaxel 25 mg/kg/day
[16] = day 23, PM00104 0.90, cisplatin 3, irinotecan 10, paclitaxel 12.5 mg/kg/day
[17] = day 26, PM00104 0.90, cisplatin 3, irinotecan 10, paclitaxel 12.5 mg/kg/day
[18] = day 29, PM00104 0.90, cisplatin 3, irinotecan 10, paclitaxel 12.5 mg/kg/day
[19] = day 40, PM00104 0.90, cisplatin 3, irinotecan 10, paclitaxel 12.5 mg/kg/day
[20] = day 40, PM00104 0.90, cisplatin 5, irinotecan 18, paclitaxel 25 mg/kg/day
[21] = day 48, PM00104 0.90, cisplatin 3, irinotecan 10, paclitaxel 12.5 mg/kg/day
[22] = day 48, PM00104 0.90, cisplatin 5, irinotecan 18, paclitaxel 25 mg/kg/day

CNC(=O)c1cc(Oc2ccc(NC(=O)Nc3ccc(Cl)c(C(F)(F)F)c3)cc2)ccn1 [sorafenib]
% Inhibition (HepG2 tumors; day 19, PM00104 0.60, sorafenib 30 mg/kg/day): −1.4%
% Inhibition (HepG2 tumors; day 19, PM00104 0.60, sorafenib 60 mg/kg/day): 11.2%
% Inhibition (HepG2 tumors; [1]): −1.4%
% T/C (HepG2 tumors; [1]): 101.4%
% Inhibition (HepG2 tumors; day 19, PM00104 0.90, sorafenib 60 mg/kg/day): 11.2%
% Inhibition (HepG2 tumors; day 22, PM00104 0.60, sorafenib 30 mg/kg/day): −23.5%
% Inhibition (HepG2 tumors; day 22, PM00104 0.60, sorafenib 60 mg/kg/day): 21.3%
% Inhibition (HepG2 tumors; [2]): −23.5%
% T/C (HepG2 tumors; [2]): 123.5%
% Inhibition (HepG2 tumors; [3]): 21.3%
% T/C (HepG2 tumors; [3]): 78.7%
% Inhibition (HepG2 tumors; day 26, PM00104 0.60, sorafenib 30 mg/kg/day): 8.7%
% Inhibition (HepG2 tumors; day 26, PM00104 0.60, sorafenib 60 mg/kg/day): 39.9%
% Inhibition (HepG2 tumors; day 26, PM00104 0.90, sorafenib 30 mg/kg/day): 8.7%
% Inhibition (HepG2 tumors; [4]): 39.9%
% T/C (HepG2 tumors; [4]): 60.1%
% Inhibition (HepG2 tumors; day 30, PM00104 0.60, sorafenib 30 mg/kg/day): −0.9%
% Inhibition (HepG2 tumors; day 30, PM00104 0.60, sorafenib 60 mg/kg/day): 38.2%
% Inhibition (HepG2 tumors; [5]): −0.9%
% T/C (HepG2 tumors; [5]): 100.9%
% Inhibition (HepG2 tumors; [6]): 38.2%
% T/C (HepG2 tumors; [6]): 61.8%
% Inhibition (HepG2 tumors; day 33, PM00104 0.60, sorafenib 30 mg/kg/day): 9.6%
% Inhibition (HepG2 tumors; day 33, PM00104 0.60, sorafenib 60 mg/kg/day): 33.8%
% Inhibition (HepG2 tumors; day 33, PM00104 0.90, sorafenib 30 mg/kg/day): 9.6%
% Inhibition (HepG2 tumors; [7]): 33.8%
% T/C (HepG2 tumors; [7]): 66.2%
% T/C (PLC/PRF/5 tumors; day 14, PM00104 0.90, sorafenib 30 mg/kg/day): 99.5%
% Inhibition (PLC/PRF/5 tumors; [8]): 1.5%
% T/C (PLC/PRF/5 tumors; [8]): 98.5%
% Inhibition (PLC/PRF/5 tumors; day 18, PM00104 0.90, sorafenib 60 mg/kg/day): 26.4%
% T/C (PLC/PRF/5 tumors; [2]): 79.5%
% Inhibition (PLC/PRF/5 tumors; [3]): 47.8%
% T/C (PLC/PRF/5 tumors; [3]): 52.2%
% Inhibition (PLC/PRF/5 tumors; [9]): 46.6%
% T/C (PLC/PRF/5 tumors; [9]): 53.4%
% Inhibition (PLC/PRF/5 tumors; [10]): 56.6%
% T/C (PLC/PRF/5 tumors; [10]): 43.4%
% Inhibition (PLC/PRF/5 tumors; [11]): 57.1%
% T/C (PLC/PRF/5 tumors; [11]): 42.9%
% T/C (PLC/PRF/5 tumors; day 35, PM00104 0.90, sorafenib 30 mg/kg/day): 54.7%
% T/C (PLC/PRF/5 tumors; day 35, PM00104 0.90, sorafenib 60 mg/kg/day): 36.5%
% T/C (PLC/PRF/5 tumors; day 39, PM00104 0.90, sorafenib 30 mg/kg/day): 59.3%
% Inhibition (PLC/PRF/5 tumors; [12]): 49.8%
% T/C (PLC/PRF/5 tumors; [12]): 50.2%
% Inhibition (PLC/PRF/5 tumors; [13]): 44.6%
% T/C (PLC/PRF/5 tumors; [13]): 55.4%

CCc1c2c(nc3ccc(OC(=O)N4CCC(N5CCCCC5)CC4)cc13)-c1cc3c(c(=O)n1C2)COC(=O)[C@]3(O)CC [irinotecan]
% Inhibition (MRI-H-254 tumors; day 16, PM00104 0.90, cisplatin 3, irinotecan 10, paclitaxel 12.5 mg/kg/day): 1.6%
% Inhibition (MRI-H-254 tumors; day 16, PM00104 0.90, cisplatin 5, irinotecan 18, paclitaxel 25 mg/kg/day): 1.9%
% Inhibition (MRI-H-254 tumors; [14]): 7.5%
% T/C (MRI-H-254 tumors; [14]): 92.5%
% Inhibition (MRI-H-254 tumors; [15]): 7.9%
% T/C (MRI-H-254 tumors; [15]): 92.1%
% Inhibition (MRI-H-254 tumors; [16]): 7.0%
% T/C (MRI-H-254 tumors; [16]): 93.0%
% Inhibition (MRI-H-254 tumors; day 23, PM00104 0.90, cisplatin 5, irinotecan 18, paclitaxel 25 mg/kg/day): 16.0%
% Inhibition (MRI-H-254 tumors; [17]): 9.8%
% T/C (MRI-H-254 tumors; [17]): 90.2%
% Inhibition (MRI-H-254 tumors; day 26, PM00104 0.90, cisplatin 5, irinotecan 18, paclitaxel 25 mg/kg/day): 25.0%
% Inhibition (MRI-H-254 tumors; [18]): 11.4%
% T/C (MRI-H-254 tumors; [18]): 88.6%
% Inhibition (MRI-H-254 tumors; [19]): 50.8%
% T/C (MRI-H-254 tumors; [19]): 49.2%
% Inhibition (MRI-H-254 tumors; [20]): 59.9%
% T/C (MRI-H-254 tumors; [20]): 40.1%
% Inhibition (MRI-H-254 tumors; [21]): 58.6%
% T/C (MRI-H-254 tumors; [21]): 41.4%
% Inhibition (MRI-H-254 tumors; [22]): 65.1%
% T/C (MRI-H-254 tumors; [22]): 34.9%

CO[C@H]1C[C@@H]2CC[C@@H](C)[C@@](O)(O2)C(=O)C(=O)N2CCCC[C@H]2C(=O)O[C@H]([C@H](C)C[C@@H]2CC[C@@H](OC(=O)C(C)(CO)CO)[C@H](OC)C2)CC(=O)[C@H](C)/C=C(\C)[C@@H](O)[C@@H](OC)C(=O)[C@H](C)C[C@H](C)/C=C/C=C/C=C/1C [temsirolimus]
% T/C on day 9 (NCI-H460 tumors; Temsirolimus 10 mg/kg/day IP): 101.9%
% T/C on day 13 (NCI-H460 tumors; Temsirolimus 10 mg/kg/day IP): 60.4%
% T/C on day 16 (NCI-H460 tumors; Temsirolimus 10 mg/kg/day IP): 55.5%
% T/C on day 21 (NCI-H460 tumors; Temsirolimus 10 mg/kg/day IP): 40.5%
% T/C on day 24 (NCI-H460 tumors; Temsirolimus 10 mg/kg/day IP): 18.9%
% T/C on day 30 (NCI-H460 tumors; Temsirolimus 10 mg/kg/day IP): 22.0%
% T/C on day 38 (NCI-H460 tumors; Temsirolimus 10 mg/kg/day IP): 52.0%
% T/C on day 41 (NCI-H460 tumors; Temsirolimus 10 mg/kg/day IP): 66.4%
% T/C on day 9 (NCI-H460 tumors; Temsirolimus 20 mg/kg/day IP): 104.4%
% T/C on day 13 (NCI-H460 tumors; Temsirolimus 20 mg/kg/day IP): 66.4%
% T/C on day 16 (NCI-H460 tumors; Temsirolimus 20 mg/kg/day IP): 68.4%
% T/C on day 21 (NCI-H460 tumors; Temsirolimus 20 mg/kg/day IP): 46.8%
% T/C on day 24 (NCI-H460 tumors; Temsirolimus 20 mg/kg/day IP): 35.9%
% T/C on day 27 (NCI-H460 tumors; Temsirolimus 20 mg/kg/day IP): 15.9%
% T/C on day 30 (NCI-H460 tumors; Temsirolimus 20 mg/kg/day IP): 23.9%
% T/C on day 38 (NCI-H460 tumors; Temsirolimus 20 mg/kg/day IP): 61.2%
% T/C on day 41 (NCI-H460 tumors; Temsirolimus 20 mg/kg/day IP): 65.2%
